According to US20220257557A1, “PHARMACEUTICAL COMPOSITION FOR PREVENTING OR TREATING NEUROLOGICAL DISEASES” (GLACEUM INC., priority 2019, published 2022):

How the values were obtained:
[1] = biological target: T1, rePON1 (PON1, paraoxonase 1) (Homo sapiens, UniProt P27169); assay: Prevention of inhibition of PON1 activity by oxidized linolenic acid (TBBL substrate); format: biochemical; details: for extent to which inhibition of rePON1 activity was prevented, compared with glabridin: compound 30 μM vs glabridin 30 μM; for extent to which inhibition of rePON1 activity was prevented, compared with glabridin / inhibition of rePON1 activity by oxidized linolenic acid: result in words; for inhibition of rePON1 activity by oxidized linolenic acid: compound 30 μM
T1 construct: purchased Thermo Corp. RP-75678
Procedure: Based on the fact that the activity of PON1 is inhibited when PON1 is treated with oxidized linolenic acid, an experiment was conducted to confirm the prevention of inhibition of PON1 activity. The activity of PON1 was measured using TBBL (5-thiobutyl butyrolactones) as a substrate.
Specifically, after 9.6 μl of 50 mM Tris-HCl containing 1 mM CaCl2 was added to each of […] Eppendorf tubes, 0.2 μl of each of the compounds of Formulas III-1, IV-1, V-1, IV-2, V-2, II-1, IV-3, V-3, III-2, IV-4, V-4, II-2 and III-3 and glabridine was added to each tube so that the concentration thereof was 30 μM. 0.2 μl of rePON1 (RP-75678, Thermo Corp.) was added to each of the 12 tubes and mixed. Thereafter, each of the mixtures was allowed to react at room temperature for 30 minutes, and 0.5 μl of 1 mM oxidized linolenic acid (OX-LA) dissolved in DMSO was added thereto in order to inhibit rePON1 activity, followed by reaction at room temperature for 2 hours, thus preparing solutions (I).
25 μl of 0.5 mM DTNB dissolved in 50 mM Tris-HCl containing 1 mM CaCl2 was dispensed into each well of a 384-well plate, and then 10 μl of each of the solutions (I) was dispensed into each well, and 20 μl of 2 mM TBBL dissolved in 50 mM Tris-HCl containing 1 mM CaCl2 was added to each well, thus preparing samples. The absorbance of each of the samples at 420 nm was measured using a spectrometer (SpectraMax M2) at 37° C. every 2 minutes for 1 hour.
In addition, a negative control was prepared in the same manner as the above-described method, except that, for the preparation of a solution, 0.2 μl of DMSO was added instead of the compounds of Formulas III-1, IV-1, V-1, IV-2, V-2, II-1, IV-3, V-3, III-2, IV-4, V-4, II-2 and III-3 and glabridin. Furthermore, a normal control was prepared in the same manner as the above-described method, except that, for the preparation of a solution, 0.2 μl of DMSO was added instead of the above-described compounds and glabridin and that oxidized linolenic acid was not added. The absorbance of each of the negative control and the normal control was measured.
Using SoftMax Pro software, the activity of PON1 was calculated from the absorbance using the following Equation 1, and the results are shown in Table 1 below.
Activity=(absorbancesample−absorbanceblank)/(absorbancePON1−absorbanceblank)*100 [Equation 1]

[2] = test system: RAW264.7 cells; assay: Transcription of NF-κB protein (p65, p50) into nucleus after LPS (Western blot); format: cell-based; details: 3 h pretreatment (Table 3 amounts), LPS 1 μg/ml 1 h
Procedure: RAW264.7 cells or BV2 cells (5×10^5 cells/well) were dispensed in DMEM containing 10% heat-inactivated FBS, 10 IU/mL penicillin G, 100 μg/mL streptomycin and 2 mM L-glutamine and cultured in a 5% CO2 incubator at a temperature of 37° C. […]
(§1) The pretreated cells of Experimental Example 4-1 were treated with 1 μg/ml of LPS for 1 hour, and then the level of transcription of NF-κB protein into the nucleus of each of p65 and p50 was analyzed through Western blot.

[3] = test system: RAW264.7 cells; assay: NO and PGE2 production after LPS; format: cell-based; details: 3 h pretreatment (Table 3 amounts), LPS 1 μg/ml 24 h
Procedure: (§2) RAW264.7 cells or BV2 cells (5×10^5 cells/well) were dispensed in DMEM containing 10% heat-inactivated FBS, 10 IU/mL penicillin G, 100 μg/mL streptomycin and 2 mM L-glutamine and cultured in a 5% CO2 incubator at a temperature of 37° C.
(§3) The compound of Formula III-3, III-4, V-3, III-1, IV-1, V-1, IV-2, V-2 or II-2 was added to the RAW264.7 cells or BV2 cells, and the toxicities of the compounds were determined by MTT assay.
(§4) The pretreated cells of Experimental Example 4-1 were treated with 1 μg/ml of LPS for 24 hours, and then the expression levels of iNOS and COX-2 were observed through Western blot, and the production of NO and PGE2 was measured.

[4] = test system: BV2 cells; assay: NO and PGE2 production after LPS; format: cell-based; details: 3 h pretreatment (Table 3 amounts), LPS 1 μg/ml 24 h
Procedure: as §2, §3, §4

[5] = test system: BV2 cells; assay: Transcription of NF-κB protein (p65, p50) into nucleus after LPS (Western blot); format: cell-based; details: 3 h pretreatment (Table 3 amounts), LPS 1 μg/ml 1 h
Procedure: as §2, §3, §1

[6] = test system: RAW264.7 cells; assay: IL-1β, IL-6 and TNF-α mRNA expression after LPS (RT-PCR); format: cell-based; details: 3 h pretreatment (Table 3 amounts), LPS 1 μg/ml 6 h
Procedure: as §2, §3
(§5) The pretreated cells of Experimental Example 4-1 were treated with 1 μg/ml of LPS for 6 hours, and then the mRNA expression level of the cytokine IL-1β, IL-6 or TNF-α produced in the inflammatory response was analyzed using RT-PCR.

[7] = test system: BV2 cells; assay: as above; format: cell-based; details: 3 h pretreatment (Table 3 amounts), LPS 1 μg/ml 6 h
Procedure: as §2, §3, §5

[8] = test system: RAW264.7 cells; assay: iNOS and COX-2 expression after LPS (Western blot); format: cell-based; details: 3 h pretreatment (Table 3 amounts), LPS 1 μg/ml 24 h
Procedure: as §2, §3, §4

[9] = test system: BV2 cells; assay: iNOS and COX-2 expression after LPS (Western blot); format: cell-based; details: 3 h pretreatment (Table 3 amounts), LPS 1 μg/ml 24 h
Procedure: as §2, §3, §4

T1 sequence (P27169 whole entry): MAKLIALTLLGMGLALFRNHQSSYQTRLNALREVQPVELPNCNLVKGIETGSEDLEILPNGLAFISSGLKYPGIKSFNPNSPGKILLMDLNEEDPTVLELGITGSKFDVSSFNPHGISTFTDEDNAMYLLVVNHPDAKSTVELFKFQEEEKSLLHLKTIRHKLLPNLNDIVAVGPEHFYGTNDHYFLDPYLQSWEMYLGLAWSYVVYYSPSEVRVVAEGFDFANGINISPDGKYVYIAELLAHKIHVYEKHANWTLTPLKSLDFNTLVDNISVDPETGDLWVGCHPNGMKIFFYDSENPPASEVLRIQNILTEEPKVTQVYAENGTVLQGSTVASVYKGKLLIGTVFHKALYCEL

SMILES	extent to which inhibition of rePON1 activity was prevented, compared with glabridin [1]	inhibition of rePON1 activity by oxidized linolenic acid [1]	level of transcription of NF-κB protein into the nucleus, p50 [2]	level of transcription of NF-κB protein into the nucleus, p65 [2]	production of NO [3]	production of PGE2 [3]	production of NO [4]	production of PGE2 [4]	level of transcription of NF-κB protein into the nucleus, p50 [5]	level of transcription of NF-κB protein into the nucleus, p65 [5]	mRNA expression level of IL-1β [6]	mRNA expression level of IL-6 [6]	mRNA expression level of TNF-α [6]	mRNA expression level of IL-1β [7]	mRNA expression level of IL-6 [7]	mRNA expression level of TNF-α [7]	expression level of COX-2 [8]	expression level of iNOS [8]	expression level of COX-2 [9]	expression level of iNOS [9]	also measured
CCOc1ccc([C@@H]2COc3c(ccc4c3CCC(C)(C)O4)C2)c(O)c1 [Formula IV-1, (R)-2-(8,8-dimethyl-2,3,4,8,9,10-hexahydropyrano[2,3-f]chromen-3-yl)-5-ethoxyphenol]	greater	prevented	concentration-dependently decreased	concentration-dependently decreased	concentration-dependently decreased	concentration-dependently decreased	concentration-dependently decreased	concentration-dependently decreased	concentration-dependently decreased	concentration-dependently decreased	concentration-dependently decreased	concentration-dependently decreased	concentration-dependently decreased	concentration-dependently decreased	concentration-dependently decreased	concentration-dependently decreased	concentration-dependently decreased	concentration-dependently decreased	concentration-dependently decreased	concentration-dependently decreased	activity at 30 µM ([1]; 30 μM compound with rePON1 30 min, then oxidized linolenic acid 2 h, TBBL substrate, normal control 100, negative control 73.64): 95%
CCCOc1ccc(C2=Cc3ccc4c(c3OC2)C=CC(C)(C)O4)c(O)c1 [Formula II-2, 2-(8,8-dimethyl-2,8-dihydropyrano[2,3-f]chromen-3-yl)-5-propoxyphenol]	greater	prevented	concentration-dependently decreased	concentration-dependently decreased	concentration-dependently decreased	concentration-dependently decreased	concentration-dependently decreased	concentration-dependently decreased	concentration-dependently decreased	concentration-dependently decreased	concentration-dependently decreased	concentration-dependently decreased	concentration-dependently decreased	concentration-dependently decreased	concentration-dependently decreased	concentration-dependently decreased	concentration-dependently decreased	concentration-dependently decreased	concentration-dependently decreased	concentration-dependently decreased	
